Laboratory results published in ChEMBL document CHEMBL5465560, “Selectivity Literature for EUbOPEN Chemogenomic Library” (2024).

Key:
[1] = biological target: T1, 3-phosphoinositide-dependent protein kinase 1 (Homo sapiens) (UniProt O15530); assay: Selectivity interaction (KinomeScan (DiscoverX)) EUB0000045b PDPK1
T1 sequence (whole entry): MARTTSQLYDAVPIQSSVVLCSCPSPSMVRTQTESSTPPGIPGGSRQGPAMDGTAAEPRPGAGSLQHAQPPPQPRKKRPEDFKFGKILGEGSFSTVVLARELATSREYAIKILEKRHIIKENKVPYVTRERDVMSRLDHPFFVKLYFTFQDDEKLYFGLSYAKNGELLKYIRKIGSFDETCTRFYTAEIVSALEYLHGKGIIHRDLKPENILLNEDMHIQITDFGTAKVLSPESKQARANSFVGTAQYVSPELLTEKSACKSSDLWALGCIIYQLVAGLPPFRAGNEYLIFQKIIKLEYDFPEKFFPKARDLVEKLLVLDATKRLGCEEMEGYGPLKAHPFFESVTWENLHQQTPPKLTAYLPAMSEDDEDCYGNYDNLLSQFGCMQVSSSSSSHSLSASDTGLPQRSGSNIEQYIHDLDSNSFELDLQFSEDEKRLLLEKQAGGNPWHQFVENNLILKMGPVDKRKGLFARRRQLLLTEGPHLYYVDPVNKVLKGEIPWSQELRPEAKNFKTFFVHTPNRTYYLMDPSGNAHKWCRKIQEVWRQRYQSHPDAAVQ

[2] = biological target: Platelet-derived growth factor receptor alpha (Homo sapiens, UniProt P16234); assay: (§1) Selectivity interaction (Kinase panel (Z-LYTE Assay)) EUB0001632a PDGFRA; conditions: at 10 µM
Chain of Platelet-derived growth factor receptor alpha (P16234 whole entry): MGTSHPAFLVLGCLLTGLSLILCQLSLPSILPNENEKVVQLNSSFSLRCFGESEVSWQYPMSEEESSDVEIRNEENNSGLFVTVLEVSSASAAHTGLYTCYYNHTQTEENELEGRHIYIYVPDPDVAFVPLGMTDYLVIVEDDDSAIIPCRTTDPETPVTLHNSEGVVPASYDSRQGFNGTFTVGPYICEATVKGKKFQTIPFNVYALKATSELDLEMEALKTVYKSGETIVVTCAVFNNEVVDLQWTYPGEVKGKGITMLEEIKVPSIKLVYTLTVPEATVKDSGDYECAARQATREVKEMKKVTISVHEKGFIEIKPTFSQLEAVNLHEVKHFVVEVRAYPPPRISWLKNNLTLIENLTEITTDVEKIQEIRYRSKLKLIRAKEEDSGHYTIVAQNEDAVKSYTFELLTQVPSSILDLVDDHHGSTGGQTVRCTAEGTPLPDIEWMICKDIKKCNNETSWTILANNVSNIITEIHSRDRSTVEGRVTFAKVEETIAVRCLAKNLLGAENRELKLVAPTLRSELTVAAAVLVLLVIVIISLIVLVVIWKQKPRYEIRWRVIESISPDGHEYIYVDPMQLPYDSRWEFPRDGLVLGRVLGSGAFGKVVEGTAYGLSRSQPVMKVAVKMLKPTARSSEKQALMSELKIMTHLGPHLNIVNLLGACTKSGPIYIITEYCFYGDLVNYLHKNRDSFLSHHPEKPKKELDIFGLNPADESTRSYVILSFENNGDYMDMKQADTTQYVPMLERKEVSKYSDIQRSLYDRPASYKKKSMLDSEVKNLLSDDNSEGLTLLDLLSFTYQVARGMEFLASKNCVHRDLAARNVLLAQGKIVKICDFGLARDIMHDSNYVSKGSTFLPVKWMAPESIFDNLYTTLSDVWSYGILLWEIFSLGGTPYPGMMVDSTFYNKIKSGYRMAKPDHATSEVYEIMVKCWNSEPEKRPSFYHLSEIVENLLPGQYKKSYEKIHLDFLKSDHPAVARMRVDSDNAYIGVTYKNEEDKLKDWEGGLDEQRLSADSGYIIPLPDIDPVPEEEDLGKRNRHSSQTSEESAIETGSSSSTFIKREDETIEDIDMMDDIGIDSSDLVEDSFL

[3] = test system: Platelet-derived growth factor receptor alpha (Homo sapiens), P16234 [D842V]; assay: as §1; conditions: at 10 µM
Chain of Platelet-derived growth factor receptor alpha (Homo sapiens), P16234 [D842V] (P16234 whole entry D842V): as the sequence (P16234 whole entry) above, with D842V counted along it

[4] = test system: Platelet-derived growth factor receptor alpha (Homo sapiens), P16234 [V561D]; assay: as §1; conditions: at 10 µM
Chain of Platelet-derived growth factor receptor alpha (Homo sapiens), P16234 [V561D] (P16234 whole entry V561D): as the sequence (P16234 whole entry) above, with V561D counted along it

[5] = test system: Platelet-derived growth factor receptor alpha (Homo sapiens), P16234 [T674I]; assay: as §1; conditions: at 10 µM
Chain of Platelet-derived growth factor receptor alpha (Homo sapiens), P16234 [T674I] (P16234 whole entry T674I): as the sequence (P16234 whole entry) above, with T674I counted along it

[6] = biological target: TRAF2 and NCK-interacting protein kinase (Homo sapiens) (UniProt Q9UKE5); conditions: at 10 µM
Chain of TRAF2 and NCK-interacting protein kinase (Homo sapiens) (Q9UKE5 whole entry, looked up): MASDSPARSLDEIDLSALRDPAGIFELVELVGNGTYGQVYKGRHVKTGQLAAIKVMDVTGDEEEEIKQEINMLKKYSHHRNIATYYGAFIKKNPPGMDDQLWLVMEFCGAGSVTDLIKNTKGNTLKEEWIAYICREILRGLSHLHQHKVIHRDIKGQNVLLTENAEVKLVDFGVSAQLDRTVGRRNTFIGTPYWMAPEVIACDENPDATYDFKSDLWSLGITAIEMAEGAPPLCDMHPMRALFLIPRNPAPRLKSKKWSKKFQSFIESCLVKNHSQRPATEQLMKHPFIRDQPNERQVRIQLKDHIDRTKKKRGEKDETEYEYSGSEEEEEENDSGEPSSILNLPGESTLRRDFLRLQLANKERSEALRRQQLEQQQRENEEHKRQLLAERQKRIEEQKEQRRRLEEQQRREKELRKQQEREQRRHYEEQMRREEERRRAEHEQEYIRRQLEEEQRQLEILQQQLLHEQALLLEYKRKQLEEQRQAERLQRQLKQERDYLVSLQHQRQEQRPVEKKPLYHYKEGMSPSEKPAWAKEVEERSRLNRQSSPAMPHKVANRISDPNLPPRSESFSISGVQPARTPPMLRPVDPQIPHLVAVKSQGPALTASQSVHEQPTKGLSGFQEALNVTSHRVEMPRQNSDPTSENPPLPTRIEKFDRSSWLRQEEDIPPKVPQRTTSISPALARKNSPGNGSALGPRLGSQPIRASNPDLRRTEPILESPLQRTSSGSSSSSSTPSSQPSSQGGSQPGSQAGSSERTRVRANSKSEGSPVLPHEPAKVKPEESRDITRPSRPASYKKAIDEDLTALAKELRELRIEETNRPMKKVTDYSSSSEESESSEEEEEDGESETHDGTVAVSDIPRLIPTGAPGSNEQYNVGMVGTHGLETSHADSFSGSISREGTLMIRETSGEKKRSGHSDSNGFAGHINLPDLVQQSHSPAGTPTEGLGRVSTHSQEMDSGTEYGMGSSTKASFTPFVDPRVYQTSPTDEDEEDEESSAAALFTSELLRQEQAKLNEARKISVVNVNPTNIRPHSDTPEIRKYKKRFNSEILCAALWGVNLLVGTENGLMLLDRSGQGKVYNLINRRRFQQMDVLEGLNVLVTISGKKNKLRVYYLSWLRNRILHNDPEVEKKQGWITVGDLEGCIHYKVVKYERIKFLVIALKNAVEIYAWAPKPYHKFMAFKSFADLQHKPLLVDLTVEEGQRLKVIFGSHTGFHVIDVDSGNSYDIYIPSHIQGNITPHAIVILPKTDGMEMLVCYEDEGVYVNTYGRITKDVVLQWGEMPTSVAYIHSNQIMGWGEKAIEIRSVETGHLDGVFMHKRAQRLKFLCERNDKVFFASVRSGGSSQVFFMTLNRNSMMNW

[7] = biological target: T2, Serine/threonine-protein kinase 36 (Homo sapiens) (UniProt Q9NRP7); assay: Selectivity interaction (KinomeScan (DiscoverX)) EUB0001049a STK36; conditions: at 1 µM
T2 sequence (whole entry): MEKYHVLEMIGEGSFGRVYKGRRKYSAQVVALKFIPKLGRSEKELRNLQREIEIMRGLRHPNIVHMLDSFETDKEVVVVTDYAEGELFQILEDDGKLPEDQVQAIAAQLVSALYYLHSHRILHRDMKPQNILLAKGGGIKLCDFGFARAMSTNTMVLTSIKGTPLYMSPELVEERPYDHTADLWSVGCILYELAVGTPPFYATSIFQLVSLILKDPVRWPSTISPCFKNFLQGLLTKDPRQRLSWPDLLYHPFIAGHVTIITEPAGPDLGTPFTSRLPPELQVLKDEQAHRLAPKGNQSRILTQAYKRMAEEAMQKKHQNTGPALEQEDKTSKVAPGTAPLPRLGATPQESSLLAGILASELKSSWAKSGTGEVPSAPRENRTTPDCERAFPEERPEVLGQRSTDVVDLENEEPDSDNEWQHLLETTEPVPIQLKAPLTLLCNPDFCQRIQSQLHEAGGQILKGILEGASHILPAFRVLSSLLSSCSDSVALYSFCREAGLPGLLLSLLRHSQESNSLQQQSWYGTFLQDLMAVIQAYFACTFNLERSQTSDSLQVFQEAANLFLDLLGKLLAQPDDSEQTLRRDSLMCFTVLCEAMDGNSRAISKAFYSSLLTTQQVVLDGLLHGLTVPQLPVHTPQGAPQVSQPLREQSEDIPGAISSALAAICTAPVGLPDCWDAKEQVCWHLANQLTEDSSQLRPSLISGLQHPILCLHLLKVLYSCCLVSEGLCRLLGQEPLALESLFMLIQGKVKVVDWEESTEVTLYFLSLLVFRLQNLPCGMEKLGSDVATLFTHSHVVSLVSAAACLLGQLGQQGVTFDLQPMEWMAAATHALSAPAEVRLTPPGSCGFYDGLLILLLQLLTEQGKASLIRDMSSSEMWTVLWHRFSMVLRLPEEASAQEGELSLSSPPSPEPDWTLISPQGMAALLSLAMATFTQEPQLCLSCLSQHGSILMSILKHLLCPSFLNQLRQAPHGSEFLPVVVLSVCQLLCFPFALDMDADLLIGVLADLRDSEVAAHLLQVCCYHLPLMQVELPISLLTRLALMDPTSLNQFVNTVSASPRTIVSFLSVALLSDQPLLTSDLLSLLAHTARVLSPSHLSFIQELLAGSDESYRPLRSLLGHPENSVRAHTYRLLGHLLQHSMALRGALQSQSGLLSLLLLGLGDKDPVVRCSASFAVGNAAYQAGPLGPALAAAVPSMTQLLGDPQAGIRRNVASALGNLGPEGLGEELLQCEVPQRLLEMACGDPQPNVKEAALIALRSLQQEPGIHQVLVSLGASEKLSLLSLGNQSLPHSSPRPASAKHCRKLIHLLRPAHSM

[8] = biological target: Dual specificity tyrosine-phosphorylation-regulated kinase 1A (Homo sapiens, UniProt Q13627); assay: Selectivity interaction (SelectScreen profiling (Invitrogen)) EUB0000607a DYRK1A; conditions: at 2 µM
[9] = biological target: T3, Atypical kinase COQ8B, mitochondrial (Homo sapiens) (UniProt Q96D53); assay: Selectivity interaction (KinomeScan (DiscoverX)) EUB0000092b ADCK4; conditions: at 10 µM
T3 sequence (whole entry): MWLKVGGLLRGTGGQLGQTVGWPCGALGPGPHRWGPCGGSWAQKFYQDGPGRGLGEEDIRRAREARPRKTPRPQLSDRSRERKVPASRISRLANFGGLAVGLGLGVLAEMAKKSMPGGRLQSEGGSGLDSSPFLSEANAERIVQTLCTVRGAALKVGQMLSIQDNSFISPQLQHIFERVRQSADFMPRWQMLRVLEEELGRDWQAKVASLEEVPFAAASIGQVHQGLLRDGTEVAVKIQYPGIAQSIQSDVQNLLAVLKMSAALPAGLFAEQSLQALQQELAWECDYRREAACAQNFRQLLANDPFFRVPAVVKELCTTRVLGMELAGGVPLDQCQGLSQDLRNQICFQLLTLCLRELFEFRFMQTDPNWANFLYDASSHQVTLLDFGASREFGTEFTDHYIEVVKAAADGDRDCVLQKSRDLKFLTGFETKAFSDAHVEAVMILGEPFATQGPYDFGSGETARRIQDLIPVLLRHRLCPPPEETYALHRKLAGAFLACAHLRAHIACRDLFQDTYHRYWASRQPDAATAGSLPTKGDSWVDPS

C=CC(=O)Nc1cc(-n2c(=O)ccc3cnc4ccc(-c5ccc(NS(C)(=O)=O)cc5)cc4c32)ccc1C
% of control ([1]; at 1 µM): 100% | % of control ([1]; at 10 µM): 100%

Cn1cc(-n2cnc3c(NCc4nc5cc(Cl)c(Cl)cc5[nH]4)nc(N4CCOCC4)nc32)cn1
% of control [2]: 8.82% | % of control [3]: 7.9% | % of control [4]: 19.4% | % of control [5]: 4.9%

Cc1cc([C@@H](C)Nc2ccccc2C(=O)O)c2nc(N3CCOCC3)cc(=O)n2c1 [AZD-6482]
% of control [6]: 98%

COc1cc(Nc2nc(C)cc(-c3cnn4nc(OC)ccc34)n2)cc(C(F)(F)F)c1
% of control [7]: 99%

CNC(=O)Nc1ccc(-c2nc(N3CC4CCC(C3)O4)c3cnn(C4CCC5(CC4)OCCO5)c3n2)cc1
% of inhibition [8]: 2%

CCC(=O)N1CCN(c2ccc(-n3c(=O)ccc4cnc5ccc(-c6cnc7ccccc7c6)cc5c43)cc2C(F)(F)F)CC1
% of control [9]: 15%
